Measurements published in patent US20160187321A1, “INDUCED EXPRESSION OF PROTEINS IN INSECT CELLS” (UNIVERSITY OF FLORIDA RESEARCH FOUNDATION, INC., priority 2013, published 2016).
“Also recorded” adds a separate entry of the source. Read-outs that look alike come from different tables or passages of the source.

Legend:
potassium channels = experiment: Thallium flux (FluxOR) fluorescence assay of potassium channel function in Sua1B cells; assay type: cell-based, Anopheles gambiae
Procedure: (§1) Differentiation with 20-Hydroxyecdysone. […] Controls had 0.1% DMSO.
Thallium Flux Measurements of Potassium Channel Pharmacology. The FluxOR™ potassium channel assay (Molecular Probes, Inc., Eugene, Oreg., USA) was performed as outlined in the product information sheet and performed on the SyntaxMax plate reader (BioTek, Winooski, Vt., USA).

AgKv2 K+ channels = experiment: Whole cell patch clamp of AgKv2 K+ channels expressed in HEK293 cells; assay type: cell-based, Anopheles gambiae
[1] = test system: Kv2 delayed-rectifier potassium channels (AgKv2); experiment: Whole cell patch clamp of potassium channel currents in Sua1B cells; assay type: cell-based, Anopheles gambiae
From the text: (§2) Cell Culture. […] Cells were passed every 3-5 days.
as §1

[2] = test system: nicotinic acetylcholine receptors; experiment: Imidacloprid-induced calcium fluorescence in Sf21 cells; assay type: cell-based, lepidopteran
Procedure: (§3) FIGS. 8A-8C. […] Imidacloprid-induced calcium fluorescence is blocked by 100 μM mecamylamine (MML). […] FIG. 8B: Response of a patch clamped Sf21 cell to imidacloprid treatment after 6 hours in 20-HE. […] The current voltage plot was generated by subtracting TEA-insensitive current from total current at each voltage.
FIG. 9. […] Expression of IMI-induced fluorescence is the same, with even lower vehicle background with caffeine, at least in this particular experiment.

[3] = test system: outward potassium currents similar to Kv2 currents; experiment: Patch clamp of potassium currents in Sf21 cells; assay type: cell-based, lepidopteran; settings: 3 hours treatment
Procedure: as §3

[4] = test system: Kv2 delayed-rectifier K+ channel (AgKv2), native channel current in Sua1B cells; settings: read-out: IC50 (TEA inhibition of K+ current), FIG. 5F, whole cell patch clamp, holding potential −80 mV, steps up to +100 mV, TEA 0.3-30 mM traces, 20-HE added 3 hours before experiments (general method)
From the text: as §2
(§4) Differentiation with 20-Hydroxyecdysone.

[5] = test system: Anopheles gambiae Kv2 (AgKv2) channel (Accession # XM_315955.4) expressed in HEK293 cells; settings: read-out: EC50 (TEA inhibition of K+ current); FIG. 6E; HEK293 cells with AgKv2 gene, CMV promoter, tetracycline-induced (w/ TC); whole cell patch clamp, holding potential −80 mV, steps up to +100 mV
muscarinic-type receptor = experiment: Calcium fluorescence response to muscarinic agonists in Sua1B cells; assay type: cell-based, Anopheles gambiae
From the text: as §2, §4

[6] = test system: nicotinic acetylcholine receptors; experiment: Patch clamp of Sf21 cell response to imidacloprid; assay type: cell-based, lepidopteran; settings: Sf21 cell after 6 hours in 20-HE
Procedure: as §3

[7] = test system: nicotinic acetylcholine receptors; experiment: Imidacloprid-induced calcium fluorescence in Sua1B cells; assay type: cell-based, Anopheles gambiae

Nc1ccncc1 [4-AP, 4-aminopyridine]
effect on thallium ion uptake (potassium channels; Sua1B cells induced by 20-HE): blocking action | inhibition of AgKv2 K+ current (AgKv2 K+ channels; HEK293 cells expressing the AgKv2 gene): inhibited | inhibition of Kv2 (AgKv2) K+ currents ([1]; 20-HE-treated Sua1B cells): inhibited AgKv2 currents | inhibition of Kv2 (AgKv2) K+ currents ([1]; 20-HE-treated Sua1B cells, listed as 4-aminopyridine): inhibited

CC(C)(O)CC[C@@H](O)[C@](C)(O)[C@H]1CC[C@@]2(O)C3=CC(=O)[C@@H]4C[C@@H](O)[C@@H](O)C[C@]4(C)[C@H]3CC[C@]12C [20-HE, 20-hydroxyecdysone]
K+ channel expression (thallium fluorescence) (potassium channels; Sua1B cells, 42 μM 20-HE, time dependence): detectable ion channel expression in hours | Maximal increase of AgKv2 channel expression (current) ([1]; 20-HE treatment of Sua1B cells): 2000 pA | time after treatment at which Kv2 delayed-rectifier potassium channels are expressed ([1]; Sua1B cells, whole cell patch clamp): ≤ 3 h | expression of nicotinic acetylcholine receptors ([2]; Sf21 cells, 6 hours of exposure): enhances expression | expression of potassium currents [3]: expressing outward potassium currents

CC[N+](CC)(CC)CC [TEA, tetraethylammonium]
IC50 [4]: 8000 µM | inhibition of AgKv2 K+ current (AgKv2 K+ channels): inhibited; also recorded: Inhibition of potassium current | EC50 [5]: 1300 µM | inhibition of Kv2 (AgKv2) K+ currents [1]: inhibited AgKv2 currents; also recorded: Inhibition of K^+ current

CC(C[N+](C)(C)C)OC(N)=O (centres unmarked) [bethanechol]
fold less potent response in the absence of insect hormone (muscarinic-type receptor): ~200 fold | EC50 (muscarinic-type receptor; read-out: EC50 (concentration where the response is half maximal), calcium fluorescence): 0.25 µM | EC50 (muscarinic-type receptor; read-out: EC50, calcium fluorescence): 48 µM

Cn1c(=O)c2c(ncn2C)n(C)c1=O [caffeine]
expression of imidacloprid sensitivity (IMI-induced fluorescence) ([2]; Sf21 cells, 6 hours exposure, 10 μM imidacloprid): approximately the same effect as caffeine and 20-HE

O=[N+]([O-])NC1=NCCN1Cc1ccc(Cl)nc1 [imidacloprid]
current response of patch clamped cell [6]: inward current | calcium fluorescence versus controls ([7]; Sua1B cells in the absence of 20-HE): no imidacloprid effect | calcium fluorescence versus controls ([7]; Sua1B cells, 3 hours of 20-HE treatment): increases calcium fluorescence above controls | calcium fluorescence compared to matched controls ([2]; 10 μM, Sf21 cells, 6 hours of exposure to 20-HE): greater imidacloprid-induced calcium fluorescence | calcium fluorescence ([2]; Sf21 cells without 20-HE): reduced effect

CNC1(C)C2CCC(C2)C1(C)C (centres unmarked) [mecamylamine]
block of imidacloprid-increased calcium fluorescence ([7]; 100 μM, Sua1B cells, 3 hours of 20-HE treatment): blocked | block of imidacloprid-induced calcium fluorescence ([2]; 100 μM, Sf21 cells, 6 hours 20-HE): blocked | reduction of imidacloprid-induced calcium fluorescence ([2]; Sf21 cells without 20-HE): variable and not statistically significant reduction

NC1=N[C@H](O)[C@H]2[C@H]3O[C@]4(O)O[C@@H]([C@@H](O)[C@@]2(N1)[C@@H]4O)[C@]3(O)CO [tetrodotoxin]
effect on thallium ion uptake (potassium channels): no effect
